Source: patent publication EP3556362A1, “STING INHIBITORS” (ECOLE POLYTECHNIQUE FEDERALE DE LAUSANNE (EPFL), priority 2018, dated 2019)

Legend:
RIG-I = target: T1, RIG-I (Homo sapiens, UniProt O95786); test: IFN-β luciferase reporter assay in HEK293T cells, RIG-I driven (counter-screen and validation)
T1 sequence (O95786 1-925): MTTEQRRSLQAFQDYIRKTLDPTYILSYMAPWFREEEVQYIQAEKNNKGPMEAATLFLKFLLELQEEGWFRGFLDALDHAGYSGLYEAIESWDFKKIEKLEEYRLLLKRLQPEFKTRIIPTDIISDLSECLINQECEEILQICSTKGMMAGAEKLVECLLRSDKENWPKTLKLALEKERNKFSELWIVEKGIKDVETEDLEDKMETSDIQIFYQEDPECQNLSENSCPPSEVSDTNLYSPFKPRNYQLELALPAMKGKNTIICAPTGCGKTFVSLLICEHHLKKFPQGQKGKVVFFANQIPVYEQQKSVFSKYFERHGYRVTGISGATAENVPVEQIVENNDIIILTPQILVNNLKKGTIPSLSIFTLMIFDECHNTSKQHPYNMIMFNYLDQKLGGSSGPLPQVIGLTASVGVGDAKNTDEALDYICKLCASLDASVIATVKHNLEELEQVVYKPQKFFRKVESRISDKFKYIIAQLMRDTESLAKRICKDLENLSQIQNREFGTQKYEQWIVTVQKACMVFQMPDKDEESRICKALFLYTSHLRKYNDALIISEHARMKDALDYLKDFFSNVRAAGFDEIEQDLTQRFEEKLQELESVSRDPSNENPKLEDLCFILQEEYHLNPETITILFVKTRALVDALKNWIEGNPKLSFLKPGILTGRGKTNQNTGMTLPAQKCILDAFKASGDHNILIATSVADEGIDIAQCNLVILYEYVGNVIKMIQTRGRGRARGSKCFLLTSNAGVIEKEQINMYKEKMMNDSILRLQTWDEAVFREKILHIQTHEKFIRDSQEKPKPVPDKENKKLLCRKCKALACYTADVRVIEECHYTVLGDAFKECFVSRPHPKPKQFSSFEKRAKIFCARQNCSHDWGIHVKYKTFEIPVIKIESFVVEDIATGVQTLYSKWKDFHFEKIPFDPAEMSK

TBK1 = target: T2, TBK1 (Homo sapiens, UniProt Q9UHD2); test: IFN-β luciferase reporter assay in HEK293T cells, TBK1 driven; settings: 0.31-2.5µM, 16 h (Figure 2)
T2 sequence (Q9UHD2 1-729): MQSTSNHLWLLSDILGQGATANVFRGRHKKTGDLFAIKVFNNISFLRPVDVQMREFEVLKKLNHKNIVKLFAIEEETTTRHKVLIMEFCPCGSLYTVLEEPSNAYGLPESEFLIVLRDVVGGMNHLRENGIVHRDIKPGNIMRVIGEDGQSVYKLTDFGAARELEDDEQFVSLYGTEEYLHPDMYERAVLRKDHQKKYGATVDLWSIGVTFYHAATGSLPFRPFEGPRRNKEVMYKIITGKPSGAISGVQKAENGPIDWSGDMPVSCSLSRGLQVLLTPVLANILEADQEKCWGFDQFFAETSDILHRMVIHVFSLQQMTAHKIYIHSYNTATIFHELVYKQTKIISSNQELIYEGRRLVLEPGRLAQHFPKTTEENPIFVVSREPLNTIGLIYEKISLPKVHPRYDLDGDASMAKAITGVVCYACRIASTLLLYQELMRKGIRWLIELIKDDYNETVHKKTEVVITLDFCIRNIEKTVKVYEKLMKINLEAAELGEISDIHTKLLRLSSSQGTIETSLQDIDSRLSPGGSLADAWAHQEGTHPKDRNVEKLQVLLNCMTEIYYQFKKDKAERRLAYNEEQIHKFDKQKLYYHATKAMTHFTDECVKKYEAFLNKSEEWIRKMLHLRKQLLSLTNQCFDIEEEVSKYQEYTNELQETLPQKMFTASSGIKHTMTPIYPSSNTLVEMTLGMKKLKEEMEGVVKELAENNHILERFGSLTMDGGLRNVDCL

RIG-I-mediated type I IFN induction (RIG-I; 0.31-2.5µM, 16 h (Figure 2)): failed to suppress
TBK1-mediated type I IFN induction (TBK1): failed to suppress
SMILES: CCc1ccc(NC(=O)Nc2c[nH]c3ccccc23)cc1 [F2740-0151, 1-(4-ethylphenyl)-3-(1H-indol-3-yl)urea]
RIG-I driven activation of the IFN-β reporter (RIG-I; counter-screen of hits from the primary screen): but not RIG-I-dependent type I IFN induction
